US20230131899A1, “INHIBITORS OF MICROBIALLY INDUCED AMYLOID” (Axial Therapeutics, Inc., priority 2020, published 2023)
Like-named read-outs stand apart in the source and are kept apart here.

Molecular target: T1, E. coli CsgA (Escherichia coli, UniProt P28307)
T1 construct: made in house; host or cells: E. coli NEB 3016 slyD::kan, pET11d
Assay: In vitro ThioflavinT assay of CsgA aggregation (CsgA ThT Assay)
Assay type: biochemical
In short: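 Purified C-terminal His-tagged CsgA, monomerised by desalting and 30-kDa filtration, at 2-20 μM with 20-40 μM ThT in 50 mM potassium phosphate pH 7.3, 1% DMSO, compounds 3.125-200 uM; room temperature, fluorescence (ex 438/em 495 nm) read every 15 min. Background-subtracted signal expressed as percent inhibition versus vehicle at 6-6.5 or 8-9 h, or as percent control AUC.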

[1] = read-out: CsgA ThT Assay (10 μM CsgA) % Control AUC at 1005 minutes, 25 μM (activity range), CsgA 10 μM, black plates, compound 25 μM, 1005 minutes, class symbol
[2] = read-out: CsgA ThT Assay (10 μM CsgA) % Control AUC at 1005 minutes, 25 μM, mean AUC as % of DMSO control, CsgA 10 μM, black plates, compound 25 μM, 1005 minutes
[3] = read-out: CsgA ThT Assay (10 μM CsgA) % Control AUC at 1005 minutes, 100 μM (activity range), CsgA 10 μM, black plates, compound 100 μM, 1005 minutes, class symbol
[4] = read-out: CsgA ThT Assay (10 μM CsgA) % Control AUC at 1005 minutes, 100 μM, mean AUC as % of DMSO control, CsgA 10 μM, black plates, compound 100 μM, 1005 minutes
[5] = read-out: CsgA ThT Assay (2 μM CsgA) % Control Bmax 25 μM, activity range, class symbol, CsgA 2 μM, white plates, compound 25 μM
[6] = read-out: CsgA ThT Assay (2 μM CsgA) % Control Bmax 25 μM, mean Bmax as percentage of DMSO control, CsgA 2 μM, white plates, compound 25 μM
[7] = read-out: CsgA ThT Assay (2 μM CsgA) % Control Bmax 100 μM, activity range, class symbol, CsgA 2 μM, white plates, compound 100 μM
[8] = read-out: CsgA ThT Assay (2 μM CsgA) % Control Bmax 100 μM, mean Bmax as percentage of DMSO control, CsgA 2 μM, white plates, compound 100 μM
[9] = mean AUC as % of DMSO control, CsgA 10 μM, black plates, compound 100 μM, 1005 minutes

T1 sequence (P28307 23-151): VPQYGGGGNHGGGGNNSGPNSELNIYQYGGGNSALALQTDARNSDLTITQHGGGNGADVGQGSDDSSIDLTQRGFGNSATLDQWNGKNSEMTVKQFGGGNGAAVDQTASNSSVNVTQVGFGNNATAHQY

Structure (SMILES)	remaining activity at 25 µM [1] [%]	remaining activity at 25 µM [2] [%]	remaining activity at 100 µM [3] [%]	remaining activity at 100 µM [4] [%]	remaining activity at 25 µM [5] [%]	remaining activity at 25 µM [6] [%]	remaining activity at 100 µM [7] [%]	remaining activity at 100 µM [8] [%]	further results
CN1CC(C(=O)O)n2c(c(-c3cccc(C(F)(F)F)c3)c(Cc3cccc4ccccc34)c(NCc3ccccc3)c2=O)S1(=O)=O (centres unmarked) [Compound 071]	11 to 31	25	> 60	78					
O=C(O)[C@@H]1CN(Cc2ccccc2)c2c(-c3cccc(C(F)(F)F)c3)c(Cc3cccc4ccccc34)c(Cl)c(=O)n21 (single isomer, unassigned) [Compound 004a]					> 60	64	11 to 31	24	
CCCCCN1CC(C(=O)O)n2c(c(-c3cccc(C(F)(F)F)c3)c(Cc3cccc4ccccc34)cc2=O)S1(=O)=O (single isomer, unassigned) [Compound 025a, 8-(naphthalen-1-ylmethyl)-6-oxo-2-pentyl-9-(3-(trifluoromethyl)phenyl)-3,4-dihydro-2H,6H-pyrido[1,2-e][1,2,5]thiadiazine-4-carboxylic acid 1,1-dioxide]	31 to 60	38	> 60						CsgA ThT Assay (10 μM CsgA) % Control AUC at 1005 minutes, 100 μM [9]: 143%
CCCN1CC(C(=O)O)n2c(c(-c3cccc(C(F)(F)F)c3)c(Cc3cccc4ccccc34)c(NC(=O)CC)c2=O)S1(=O)=O (centres unmarked) [Compound 153, 8-(naphthalen-1-ylmethyl)-6-oxo-7-propionamido-2-propyl-9-(3-(trifluoromethyl)phenyl)-3,4-dihydro-2H,6H-pyrido[1,2-e][1,2,5]thiadiazine-4-carboxylic acid 1,1-dioxide]					> 60	91	> 60	83	
CCCN1CC(C(=O)O)n2c(c(-c3cccc(C(F)(F)F)c3)c(Cc3cccc4ccccc34)cc2=O)S1(=O)=O (single isomer, unassigned) [Compound 016b, 8-(naphthalen-1-ylmethyl)-6-oxo-2-propyl-9-(3-(trifluoromethyl)phenyl)-3,4-dihydro-2H,6H-pyrido[1,2-e][1,2,5]thiadiazine-4-carboxylic acid 1,1-dioxide]									CsgA ThT Assay (10 μM CsgA) % Control AUC at 1005 minutes, 25 μM (activity range) (CsgA 10 μM, black plates, compound 25 μM, 1005 minutes, class symbol): (++) (% control AUC of 31 to 60%); CsgA ThT Assay (10 μM CsgA) % Control AUC at 1005 minutes, 100 μM (activity range) (CsgA 10 μM, black plates, compound 100 μM, 1005 minutes, class symbol): (+++) (% control AUC of 11 to 31%); CsgA ThT Assay (10 μM CsgA) % Control AUC at 1005 minutes, 25 μM (mean AUC as % of DMSO control, CsgA 10 μM, black plates, compound 25 μM, 1005 minutes): 33%; CsgA ThT Assay (10 μM CsgA) % Control AUC at 1005 minutes, 100 μM [9]: 23%
CC(C)N1CC(C(=O)O)n2c(c(-c3cccc(C(F)(F)F)c3)c(Cc3cccc4ccccc34)c(C(N)=O)c2=O)S1(=O)=O (centres unmarked) [Compound 175, 7-carbamoyl-2-isopropyl-8-(naphthalen-1-ylmethyl)-6-oxo-9-(3-(trifluoromethyl)phenyl)-3,4-dihydro-2H,6H-pyrido[1,2-e][1,2,5]thiadiazine-4-carboxylic acid 1,1-dioxide]					31 to 60	33	11 to 31	24	
O=C(O)C1CN(C[C@H](O)[C@@H](O)[C@H](O)[C@H](O)CO)S(=O)(=O)c2c(-c3cccc(C(F)(F)F)c3)c(Cc3cccc4ccccc34)cc(=O)n21 (mixture of isomers) [Compound 066, 8-(naphthalen-1-ylmethyl)-6-oxo-2-((2S,3R,4R,5R)-2,3,4,5,6-pentahydroxyhexyl)-9-(3-(trifluoromethyl)phenyl)-3,4-dihydro-2H,6H-pyrido[1,2-e][1,2,5]thiadiazine-4-carboxylic acid 1,1-dioxide]	> 60	88	11 to 31	29					
O=C(O)[C@H]1CN(Cc2ccccc2)c2c(-c3cccc(C(F)(F)F)c3)c(Cc3cccc4ccccc34)c(Cl)c(=O)n21 (single isomer, unassigned) [Compound 004b]					31 to 60	54	31 to 60	40	
CNC(=O)C1CN(C)S(=O)(=O)c2c(-c3cccc(C(F)(F)F)c3)c(Cc3cccc4ccccc34)cc(=O)n21 (centres unmarked) [Compound 031, N,2-dimethyl-8-(naphthalen-1-ylmethyl)-6-oxo-9-(3-(trifluoromethyl)phenyl)-3,4-dihydro-2H,6H-pyrido[1,2-e][1,2,5]thiadiazine-4-carboxamide 1,1-dioxide]	> 60	100	> 60	99					
CN(C)C(=O)c1c(Cc2cccc3ccccc23)c(-c2cccc(C(F)(F)F)c2)c2n(c1=O)C(C(=O)O)CN(C)S2(=O)=O (centres unmarked) [Compound 173, 7-(dimethylcarbamoyl)-2-methyl-8-(naphthalen-1-ylmethyl)-6-oxo-9-(3-(trifluoromethyl)phenyl)-3,4-dihydro-2H,6H-pyrido[1,2-e] [1,2,5] thiadiazine-4-carboxylic acid 1,1-dioxide]					> 60	73	31 to 60	40	
O=C(O)C1CN(CCc2ccccc2)c2c(-c3cccc(C(F)(F)F)c3)c(Cc3cccc4ccccc34)c(Cl)c(=O)n21 (centres unmarked) [Compound 178, 6-chloro-7-(naphthalen-1-ylmethyl)-5-oxo-1-phenethyl-8-(3-(trifluoromethyl)phenyl)-1,2,3,5-tetrahydroimidazo[1,2-a]pyridine-3-carboxylic acid]					31 to 60	57	< 10	9	
O=C(O)C1CSc2c(-c3cccc(C(F)(F)F)c3)c(Cc3cccc4ccccc34)cc(=S)n21 (centres unmarked) [Compound 054, 7-(naphthalen-1-ylmethyl)-5-thioxo-8-(3-(trifluoromethyl)phenyl)-2,3-dihydro-5H-thiazolo[3,2-a]pyridine-3-carboxylic acid]	31 to 60	44	31 to 60	50					
CCCN1CC(C(=O)O)n2c(c(-c3cccc(C(F)(F)F)c3)c(Cc3cccc4ccccc34)c(Cl)c2=O)S1(=O)=O (centres unmarked) [Compound 142, 7-chloro-8-(naphthalen-1-ylmethyl)-6-oxo-2-propyl-9-(3-(trifluoromethyl)phenyl)-3,4-dihydro-2H,6H-pyrido[1,2-e][1,2,5]thiadiazine-4-carboxylic acid 1,1-dioxide]					> 60	87	> 60	121	
CN1CC(C(=O)O)n2c(c(-c3cccc(C(F)(F)F)c3)c(Cc3cccc4ccccc34)c(NC3CCCC3)c2=O)S1(=O)=O (centres unmarked) [Compound 070, 7-(cyclopentylamino)-2-methyl-8-(naphthalen-1-ylmethyl)-6-oxo-9-(3-(trifluoromethyl)phenyl)-3,4-dihydro-2H,6H-pyrido[1,2-e][1,2,5]thiadiazine-4-carboxylic acid 1,1-dioxide]	11 to 31	17	11 to 31	29					
CCCN1CC(C(=O)O)n2c1c(-c1cccc(C(F)(F)F)c1)c(Cc1cccc3ccccc13)c(Cl)c2=O (centres unmarked) [Compound 162, 6-chloro-7-(naphthalen-1-ylmethyl)-5-oxo-1-propyl-8-(3-(trifluoromethyl)phenyl)-1,2,3,5-tetrahydroimidazo[1,2-a]pyridine-3-carboxylic acid]					31 to 60	34	31 to 60	49	
O=C(O)C1CN(C[C@H](O)CO)S(=O)(=O)c2c(-c3cccc(C(F)(F)F)c3)c(Cc3cccc4ccccc34)cc(=O)n21 (stereo partly drawn) [Compound 065a, 2-((S)-2,3-dihydroxypropyl)-8-(naphthalen-1-ylmethyl)-6-oxo-9-(3-(trifluoromethyl)phenyl)-3,4-dihydro-2H,6H-pyrido[1,2-e][1,2,5]thiadiazine-4-carboxylic acid 1,1-dioxide]	> 60	65	11 to 31	18					
CC(C)(C)c1ccc(Cc2c(-c3cccc(C(F)(F)F)c3)c3n(c(=O)c2Cl)C(C(=O)O)CN3Cc2ccccc2)cc1 (centres unmarked) [Compound 216, 1-benzyl-7-(4-(tert-butyl)benzyl)-6-chloro-5-oxo-8-(3-(trifluoromethyl)phenyl)-1,2,3,5-tetrahydroimidazo[1,2-a]pyridine-3-carboxylic acid]					> 60	95	31 to 60	55	
